Our source for the inhibition values is patent publication US20110281812A1, “Compounds” (priority 2009, published 2011).

Some results are limits rather than exact numbers.

This experiment concerns IL-6 production in LPS-stimulated murine spleenocytes. The experiment in a line: Inhibition of IL-6 production in LPS-stimulated murine spleenocytes in vitro. The settings on record: Mus musculus, 50 μM concentration of the compound, read-out: inhibition of interleukin-6 (IL-6) production. Type of experiment: cell-based. The protocol:
Test and reference substances used in an in vitro assays were dissolved in dimethyl sulfoxide (DMSO) (Sigma Chemical Co., USA) at a concentration of 50 mM and were further diluted to test concentrations in appropriate cell culture medium.
After cervical dislocation, mouse spleens were removed using sterile dissection tools. Spleens were transferred to a pre-wetted cell strainer in a 50 mL sterile conical tube and cell suspension was made by gentle puddle. Cells were centrifuged (20 min, 300×g) and resuspended in 2 mL of sterile phosphate buffered saline (PBS) (Sigma Chemical Co., USA). Red blood cells were lysed by addition of 3 mL of sterile water and occasionally gentle shaking for 1 minute. Afterwards, the tube was filled to 40 mL with DMEM medium and centrifuged (20 min, 300×g). Cells were resuspended in DMEM supplemented with 1% FBS and seeded in a 24-well plate, 1×10^6 cells per mL medium.
Final concentrations of 50 μM, 25 μM, 12.5 μM, 6.3 μM and 3.1 μM of test compounds were prepared by diluting a 50 mM DMSO stock in Dulbecco's modified Eagle medium (DMEM) (Gibco, USA) supplemented with 1% heat inactivated fetal bovine serum (FBS) (BioWest, Ringmer, United Kingdom).
Cells were pre-incubated with the test compounds for 3 h at 37° C., in an atmosphere of 5% CO2 and 90% humidity. Afterwards, cells were stimulated with 1 μg/mL lipopolysaccharide (LPS, E. coli 0111:B4, Sigma Chemical Co., USA) and incubated overnight. Concentration of IL-6 was determined in cell supernatants by sandwich ELISA using capture and detection antibodies (R&D Systems, USA) according to the manufacturer's recommendations.
Inhibition (as percentage) was calculated using the following formula:
% inhibition=[1−(concentration of IL-6 in sample−concentration of IL-6 in negative control)/(concentration of IL-6 in positive control−concentration of IL-6 in negative control)]×100.
The positive control refers to LPS-stimulated samples that were not preincubated with the compounds.
The negative control refers to unstimulated and untreated samples.
As usually defined, the inhibition is the change of the read-out against control, counted positive when it falls. With `CC[C@H]1OC(=O)[C@H](C)[C@@H](O[C@H]2C[C@@](C)(OC)[C@@H](O)[C@H](C)O2)[C@H](C)[C@@H](O[C@@H]2O[C@H](C)C[C@H](N(C)C)[C@H]2OCCCNC(=O)CC(C)C)[C@](C)(O)C[C@@H](C)CN(C)[C@H](C)[C@@H](O)[C@]1(C)O` [Example 41, 2′-O-{3-[(3-Methylbutanoyl)amino]propyl}-9-deoxo-9a-methyl-9a-aza-9a-homoerythromycin A], the inhibition at 50 µM was above 40%.
The same measure for `CC[C@H]1OC(=O)[C@H](C)[C@@H](O[C@H]2C[C@@](C)(OC)[C@@H](O)[C@H](C)O2)[C@H](C)[C@@H](O[C@@H]2O[C@H](C)C[C@H](N(C)C)[C@H]2OCCCNC(=O)c2ccncc2)[C@](C)(O)C[C@@H](C)CN(C)[C@H](C)[C@@H](O)[C@]1(C)O` [Example 6, 2′-O-{3-[(4-Pyridinylcarbonyl)amino]propyl}-9-deoxo-9a-methyl-9a-aza-9a-homoerythromycin A]: above 40%.
The same measure for `CC[C@H]1OC(=O)[C@H](C)[C@@H](O[C@H]2C[C@@](C)(OC)[C@@H](O)[C@H](C)O2)[C@H](C)[C@@H](O[C@@H]2O[C@H](C)C[C@H](N(C)C)[C@H]2OCCCNC(=O)c2ccccn2)[C@](C)(O)C[C@@H](C)CN(C)[C@H](C)[C@@H](O)[C@]1(C)O` [Example 31, 2′-O-{3-[(2-Pyridinylcarbonyl)amino]propyl}-9-deoxo-9a-methyl-9a-aza-9a-homoerythromycin A]: above 40%.
The value for `CC[C@H]1OC(=O)[C@H](C)[C@@H](O[C@H]2C[C@@](C)(OC)[C@@H](O)[C@H](C)O2)[C@H](C)[C@@H](O[C@@H]2O[C@H](C)C[C@H](N(C)C)[C@H]2OCCCNC(=O)c2ccc(N)cc2O)[C@](C)(O)C[C@@H](C)CN(C)[C@H](C)[C@@H](O)[C@]1(C)O` [Example 33, 2′-O-(3-{[(4-Amino-2-hydroxyphenyl)carbonyl]amino}propyl)-9-deoxo-9a-methyl-9a-aza-9a-homoerythromycin A] was above 40%; that for `CC[C@H]1OC(=O)[C@H](C)[C@@H](O[C@H]2C[C@@](C)(OC)[C@@H](O)[C@H](C)O2)[C@H](C)[C@@H](O[C@@H]2O[C@H](C)C[C@H](N(C)C)[C@H]2OCCCNC(=O)c2ccc(Cl)cc2)[C@](C)(O)C[C@@H](C)CN(C)[C@H](C)[C@@H](O)[C@]1(C)O` [Example 29, 2′-O-(3-{[(4-Chlorophenyl)carbonyl]amino}propyl)-9-deoxo-9a-methyl-9a-aza-9a-homoerythromycin A] was above 40%.
Regarding `CC[C@H](C)[C@H](N)C(=O)NCCCO[C@H]1[C@H](O[C@@H]2[C@@H](C)[C@H](O[C@H]3C[C@@](C)(OC)[C@@H](O)[C@H](C)O3)[C@@H](C)C(=O)O[C@H](CC)[C@@](C)(O)[C@H](O)[C@@H](C)N(C)C[C@H](C)C[C@@]2(C)O)O[C@H](C)C[C@@H]1N(C)C` [Example 11, 2′-O-[3-(L-isoleucylamino)propyl]-9-deoxo-9a-methyl-9a-aza-9a-homoerythromycin A], the inhibition at 50 µM was above 40%.
The value for `CC[C@H]1OC(=O)[C@H](C)[C@@H](O[C@H]2C[C@@](C)(OC)[C@@H](O)[C@H](C)O2)[C@H](C)[C@@H](O[C@@H]2O[C@H](C)C[C@H](N(C)C)[C@H]2OCCCNC(=O)c2ccc(C)nc2Cl)[C@](C)(O)C[C@@H](C)CN(C)[C@H](C)[C@@H](O)[C@]1(C)O` [Example 35, 2′-O-(3-{[(2-Chloro-6-methyl-3-pyridinyl)carbonyl]amino}propyl)-9-deoxo-9a-methyl-9a-aza-9a-homoerythromycin A] was above 40%.
Regarding `CC[C@H]1OC(=O)[C@H](C)[C@@H](O[C@H]2C[C@@](C)(OC)[C@@H](O)[C@H](C)O2)[C@H](C)[C@@H](O[C@@H]2O[C@H](C)C[C@H](N(C)C)[C@H]2OCCCNC(C)=O)[C@](C)(O)C[C@@H](C)CN(C)[C@H](C)[C@@H](O)[C@]1(C)O` [Example 1, 2′-O[3-(Acetylamino)propyl]-9-deoxo-9a-methyl-9a-aza-9a-homoerythromycin A], the inhibition at 50 µM was above 40%.
The value for `CC[C@H]1OC(=O)[C@H](C)[C@@H](O[C@H]2C[C@@](C)(OC)[C@@H](O)[C@H](C)O2)[C@H](C)[C@@H](O[C@@H]2O[C@H](C)C[C@H](N(C)C)[C@H]2OCCCNC(=O)C(C)C)[C@](C)(O)C[C@@H](C)CN(C)[C@H](C)[C@@H](O)[C@]1(C)O` [Example 3, 2′-O-{3-[(2-Methylpropanoyl)amino]propyl}-9-deoxo-9a-methyl-9a-aza-9a-homoerythromycin A] was above 40%; that for `CC[C@H]1OC(=O)[C@H](C)[C@@H](O[C@H]2C[C@@](C)(OC)[C@@H](O)[C@H](C)O2)[C@H](C)[C@@H](O[C@@H]2O[C@H](C)C[C@H](N(C)C)[C@H]2OCCCNC(=O)c2c(C)nn(C)c2Cl)[C@](C)(O)C[C@@H](C)CN(C)[C@H](C)[C@@H](O)[C@]1(C)O` [Example 38, 2′-O-(3-{[(5-Chloro-1,3-dimethyl-1H-pyrazol-4-yl)carbonyl]amino}propyl)-9-deoxo-9a-methyl-9a-aza-9a-homoerythromycin A] was above 40%; that for `CC[C@H]1OC(=O)[C@H](C)[C@@H](O[C@H]2C[C@@](C)(OC)[C@@H](O)[C@H](C)O2)[C@H](C)[C@@H](O[C@@H]2O[C@H](C)C[C@H](N(C)C)[C@H]2OCCCNC(=O)[C@@H](N)CCSC)[C@](C)(O)C[C@@H](C)CN(C)[C@H](C)[C@@H](O)[C@]1(C)O` [Example 12, 2′-O-[3-(L-methionylamino)propyl]-9-deoxo-9a-methyl-9a-aza-9a-homoerythromycin A] was above 40%.
The same measure for `CC[C@H]1OC(=O)[C@H](C)[C@@H](O[C@H]2C[C@@](C)(OC)[C@@H](O)[C@H](C)O2)[C@H](C)[C@@H](O[C@@H]2O[C@H](C)C[C@H](N(C)C)[C@H]2OCCCNC(=O)C(C)(C)C)[C@](C)(O)C[C@@H](C)CN(C)[C@H](C)[C@@H](O)[C@]1(C)O` [Example 4, 2′-O-{3-[(2,2-Dimethylpropanoyl)amino]propyl}-9-deoxo-9a-methyl-9a-aza-9a-homoerythromycin A]: above 40%; for `CC[C@H]1OC(=O)[C@H](C)[C@@H](O[C@H]2C[C@@](C)(OC)[C@@H](O)[C@H](C)O2)[C@H](C)[C@@H](O[C@@H]2O[C@H](C)C[C@H](N(C)C)[C@H]2OCCCNC(=O)c2cc(O)ccc2O)[C@](C)(O)C[C@@H](C)CN(C)[C@H](C)[C@@H](O)[C@]1(C)O` [Example 32, 2′-O-{3-[(2,5-Dihydroxyphenylcarbonyl)amino]propyl}-9-deoxo-9a-methyl-9a-aza-9a-homoerythromycin A]: above 40%; for `CC[C@H]1OC(=O)[C@H](C)[C@@H](O[C@H]2C[C@@](C)(OC)[C@@H](O)[C@H](C)O2)[C@H](C)[C@@H](O[C@@H]2O[C@H](C)C[C@H](N(C)C)[C@H]2OCCCNC(=O)c2cccnc2Cl)[C@](C)(O)C[C@@H](C)CN(C)[C@H](C)[C@@H](O)[C@]1(C)O` [Example 34, 2′-O-(3-{[(2-Chloro-3-pyridinyl)carbonyl]amino}propyl)-9-deoxo-9a-methyl-9a-aza-9a-homoerythromycin A]: above 40%.
`CC[C@H]1OC(=O)[C@H](C)[C@@H](O[C@H]2C[C@@](C)(OC)[C@@H](O)[C@H](C)O2)[C@H](C)[C@@H](O[C@@H]2O[C@H](C)C[C@H](N(C)C)[C@H]2OCCCNC(=O)c2cc(C)oc2C)[C@](C)(O)C[C@@H](C)CN(C)[C@H](C)[C@@H](O)[C@]1(C)O` [Example 24, 2′-O-(3-{[(2,5-Dimethyl-3-furanyl)carbonyl]amino}propyl)-9-deoxo-9a-methyl-9a-aza-9a-homoerythromycin A]: the inhibition at 50 µM was above 40%.
On to `CC[C@H]1OC(=O)[C@H](C)[C@@H](O[C@H]2C[C@@](C)(OC)[C@@H](O)[C@H](C)O2)[C@H](C)[C@@H](O[C@@H]2O[C@H](C)C[C@H](N(C)C)[C@H]2OCCCNC(=O)c2cc(C)n(C)c2C)[C@](C)(O)C[C@@H](C)CN(C)[C@H](C)[C@@H](O)[C@]1(C)O` [Example 26, 2′-O-(3-{[(1,2,5-Trimethyl-1H-pyrrol-3-yl)carbonyl]amino}propyl)-9-deoxo-9a-methyl-9a-aza-9a-homoerythromycin A], for which the inhibition at 50 µM is above 40%.
Consider `CC[C@H]1OC(=O)[C@H](C)[C@@H](O[C@H]2C[C@@](C)(OC)[C@@H](O)[C@H](C)O2)[C@H](C)[C@@H](O[C@@H]2O[C@H](C)C[C@H](N(C)C)[C@H]2OCCCNC(=O)c2nc(C)oc2C)[C@](C)(O)C[C@@H](C)CN(C)[C@H](C)[C@@H](O)[C@]1(C)O` [Example 39, 2′-O-(3-{[(2,5-Dimethyl-1,3-oxazol-4-yl)carbonyl]amino}propyl)-9-deoxo-9a-methyl-9a-aza-9a-homoerythromycin A], for which the inhibition at 50 µM was above 40%.
